# Measurements from patent publication US11878970B2, “Allosteric chromenone inhibitors of phosphoinositide 3-kinase (PI3K) for the treatment of disease” (Petra Pharma Corporation, priority 2021, dated 2024).
# Legend:
# [1] = molecular target: T1, PI3K-α (PIK3CA) wild-type (WT), p110α/p85α complex (Homo sapiens, UniProt P42336); experiment: PI3K-alpha kinase (PIK3CA) biochemical activity, ADP-Glo, wild-type; conditions: Soy PI lipid substrate
# T1 construct: Recombinant, catalytically active human full length PIK3KA Wild-type and H1047R mutant; 6×His (N); purchased EMD Millipore Sigma 14-602M
# From the text: (§1) PI3K-Alpha Kinase (PIK3CA) Activity, Wild-Type and H1047R Mutant and Determining IC50 Values for Inhibitors
# (§2) Recombinant, catalytically active human full length PIK3KA Wild-type and H1047R mutant were purchased as 1:1 complex of N-terminal 6×his tagged p110α (catalytic) and untagged p85α (regulatory subunit) from EMD Millipore Sigma (cat. no. 14-602M and 14-792M, respectively). PIP2diC8 (Avanti Polar Lipids Inc., cat. no. 850185) or Soy PI (Avanti Polar Lipids Inc., cat. No. 840044P) was used as lipid substrate. PIP2diC8 or PI lyophilized powder was dissolved in milliQ water to a concentration of 1 mM just before use. 10 mM stock compounds in DMSO were serially diluted 1:3 to generate a 10-point curve and plated using an acoustic liquid handler system (Echo 550 series instrument, Labcyte). A 10× intermediate compound plate (200 uM starting compound concentration and 10% DMSO) was prepared before starting the reaction. A typical reaction mixture (50 uL) comprised 40 mM HEPES buffer, pH 7.4, 25 mM MgCl2, 0.01% v/v triton-X-100, 1% v/v DMSO, 20 mM NaCl, 1-5 nM WT or H1047R PI3K protein, 20 uM ATP, and 50 uM PIP2diC8 or Soy PI. 1% DMSO buffer alone without test compound was employed as MAX control (full activity in the absence of any inhibitor), and no enzyme control was used to determine the level of background Adenosine 5′-diphosphate (ADP) (MIN control). First, Wild-type (WT) and H1047R mutant protein in kinase buffer with all components except ATP were incubated with or without compound at 27° C. for 1 h. After the pre-incubation, the reaction was initiated by the addition of 20 uL of 50 uM ATP (20 uM final concentration). The reaction was allowed to proceed until about 10% conversion of ATP (2 uM ADP) at 27° C. After that time, 5 uL of reaction was mixed with 5 uL of ADP-Kinase Glo Reagent (ADP-Glo Kinase assay kit, Promega cat. no. V9102) supplemented with MgCl2 10 mM to stop the reaction and deplete the remaining ATP for 40 min at room temperature. Then, 10 uL of Kinase Detection Reagent (ADP-Glo Kinase assay kit, Promega cat. no. V9102) was added to simultaneously convert ADP to ATP and allow the newly synthesized ATP to be measured using a luciferase/luciferin reaction. After 30 min at room temperature the light generated was measured using a luminometer (EnVision plate reader, Perkin Elmer). Process data through Genedata-Screener tool. Relative IC50 values are determined using luminescence units by calculating percent inhibition with respect to on-plate “MIN” and “MAX” controls. Data was analyzed using a 4-parameter nonlinear logistic equation (four-parameter logistic concentration-response curve): Y=bot+[(top−bot)/1+(x/IC50)slope] where Y=% inhibition, X=concentration yielding y % inhibition, Bottom=minimum value of y attained by curve, Top=maximum value of y attained by curve and Slope=steepness of curve at IC50. % Inh=[(median Max−x/median Max−median Min)]·100 IC50: concentration of compound that reduces a given response (ligand binding, enzyme response) by 50%. IC50 relative: concentration giving half the compound's maximum response.
# [2] = molecular target: T2, PI3K-α (PIK3CA) H1047R mutant, p110α/p85α complex (Homo sapiens, UniProt P42336, H1047R); experiment: PI3K-alpha kinase (PIK3CA) biochemical activity, ADP-Glo, H1047R mutant; conditions: Soy PI lipid substrate
# T2 construct: Recombinant, catalytically active human full length PIK3KA Wild-type and H1047R mutant; 6×His (N); purchased EMD Millipore Sigma 14-792M
# T2 sequence (P42336 whole entry H1047R): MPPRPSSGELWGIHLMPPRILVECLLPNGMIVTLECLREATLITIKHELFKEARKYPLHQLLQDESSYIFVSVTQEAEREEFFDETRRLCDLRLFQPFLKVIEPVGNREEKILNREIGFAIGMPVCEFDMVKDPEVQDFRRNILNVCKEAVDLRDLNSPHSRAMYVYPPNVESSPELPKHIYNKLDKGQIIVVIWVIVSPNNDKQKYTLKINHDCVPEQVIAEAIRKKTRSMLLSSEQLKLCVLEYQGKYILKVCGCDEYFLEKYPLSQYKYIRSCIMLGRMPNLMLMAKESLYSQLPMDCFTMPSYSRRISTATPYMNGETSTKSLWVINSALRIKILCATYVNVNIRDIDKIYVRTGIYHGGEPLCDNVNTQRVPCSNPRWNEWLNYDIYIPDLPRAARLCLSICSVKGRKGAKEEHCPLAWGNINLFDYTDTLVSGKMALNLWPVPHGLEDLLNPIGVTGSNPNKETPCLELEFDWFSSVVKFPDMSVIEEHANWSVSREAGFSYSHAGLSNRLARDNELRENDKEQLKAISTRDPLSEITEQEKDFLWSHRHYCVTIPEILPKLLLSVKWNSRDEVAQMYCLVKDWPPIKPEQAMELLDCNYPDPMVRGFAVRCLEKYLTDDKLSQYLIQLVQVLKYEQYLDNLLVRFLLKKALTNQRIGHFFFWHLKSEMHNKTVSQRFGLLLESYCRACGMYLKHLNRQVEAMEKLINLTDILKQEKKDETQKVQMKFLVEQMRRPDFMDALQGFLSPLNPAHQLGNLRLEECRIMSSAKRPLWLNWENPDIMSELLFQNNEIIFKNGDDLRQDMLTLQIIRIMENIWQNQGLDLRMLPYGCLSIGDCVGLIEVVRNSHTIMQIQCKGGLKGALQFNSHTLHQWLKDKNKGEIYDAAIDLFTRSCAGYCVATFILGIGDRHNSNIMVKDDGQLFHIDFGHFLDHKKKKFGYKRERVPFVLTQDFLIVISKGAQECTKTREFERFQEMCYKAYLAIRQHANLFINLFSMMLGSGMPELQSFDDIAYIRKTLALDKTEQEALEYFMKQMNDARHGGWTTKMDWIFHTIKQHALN
# T2 sequence (P27986 whole entry partner): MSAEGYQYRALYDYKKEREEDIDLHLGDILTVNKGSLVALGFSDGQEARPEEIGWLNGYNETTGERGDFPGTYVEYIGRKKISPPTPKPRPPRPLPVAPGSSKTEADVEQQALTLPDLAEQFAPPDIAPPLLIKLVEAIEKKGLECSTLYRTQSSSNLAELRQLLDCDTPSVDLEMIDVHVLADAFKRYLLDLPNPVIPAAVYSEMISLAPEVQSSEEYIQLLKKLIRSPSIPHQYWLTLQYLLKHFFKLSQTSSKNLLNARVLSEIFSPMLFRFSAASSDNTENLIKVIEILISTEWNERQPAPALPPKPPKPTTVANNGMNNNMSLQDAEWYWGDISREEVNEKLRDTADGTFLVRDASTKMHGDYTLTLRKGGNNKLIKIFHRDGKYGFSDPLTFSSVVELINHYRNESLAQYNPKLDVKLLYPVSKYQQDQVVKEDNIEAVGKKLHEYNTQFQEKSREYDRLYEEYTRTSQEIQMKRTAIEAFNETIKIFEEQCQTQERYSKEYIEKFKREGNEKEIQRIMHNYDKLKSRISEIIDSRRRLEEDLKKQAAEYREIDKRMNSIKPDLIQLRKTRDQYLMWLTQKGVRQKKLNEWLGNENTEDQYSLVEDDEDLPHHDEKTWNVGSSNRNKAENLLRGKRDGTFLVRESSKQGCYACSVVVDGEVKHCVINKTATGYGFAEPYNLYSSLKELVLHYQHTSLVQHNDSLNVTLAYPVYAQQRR
# From the text: as §1, §2
SMILES,IC50 [1] [nM],IC50 [2] [nM]
"CC(Nc1ccc(Cl)nc1C(=O)O)c1cc(C(F)(F)F)cc2c(=O)cc(-c3cc(Cl)c4nn(C)cc4c3)oc12 (single isomer, unassigned) [Example 194, 6-Chloro-3-[1-[2-(7-chloro-2-methyl-indazol-5-yl)-4-oxo-6-(trifluoromethyl)chromen-8-yl]ethylamino]pyridine-2-carboxylic acid]",500 to 1000,500 to 1000
"Cc1cc(C(C)Nc2ccccc2C(=O)O)c2oc(-c3ccc4nn(CC(C)(C)O)cc4c3)cc(=O)c2c1 (single isomer, unassigned) [Example 122, 2-[1-[2-[2-(2-Hydroxy-2-methyl-propyl)indazol-5-yl]-6-methyl-4-oxo-chromen-8-yl]ethylamino]benzoic acid]",> 10000,500 to 1000
"Cc1cc(C(C)Nc2ccccc2C(=O)O)c2oc(-c3ccc4cncn4c3)cc(=O)c2c1 (single isomer, unassigned) [Example 79, 2-[1-(2-Imidazo[1,5-a]pyridin-6-yl-6-methyl-4-oxo-chromen-8-yl)ethylamino]benzoic acid]",1000 to 5000,< 500
"Cc1cn2cc(-c3oc4c(C(C)Nc5ccccc5C(=O)O)cc(F)cc4c(=O)c3C)ccc2n1 (single isomer, unassigned) [Example 124, 2-[1-[6-Fluoro-3-methyl-2-(2-methylimidazo[1,2-a]pyridin-6-yl)-4-oxo-chromen-8-yl]ethylamino]benzoic acid]",500 to 1000,< 500
"Cc1cc(C(C)Nc2ccccc2C(=O)O)c2oc(-c3ccc4cncnc4c3)cc(=O)c2c1 (single isomer, unassigned) [Example 114, 2-[1-(6-Methyl-4-oxo-2-quinazolin-7-yl-chromen-8-yl)ethylamino]benzoic acid]",> 10000,> 10000
"Cc1ccc2c(cnn2-c2cc(=O)c3cc(C)cc(C(C)Nc4ccccc4C(=O)O)c3o2)c1 (single isomer, unassigned) [Example 87, 2-[1-[6-Methyl-2-(5-methylindazol-1-yl)-4-oxo-chromen-8-yl]ethylamino]benzoic acid]",1000 to 5000,< 500
"Cc1cc(C(C)Nc2ccccc2C(=O)O)c2oc(-c3ccc4nccn4c3)cc(=O)c2c1 (single isomer, unassigned) [Example 73, 2-[1-(2-Imidazo[1,2-a]pyridin-6-yl-6-methyl-4-oxo-chromen-8-yl)ethylamino]benzoic acid]",1000 to 5000,< 500
"Cc1cc(C(C)Nc2ccccc2C(=O)O)c2oc(-c3ccc4nc(C)cn4c3)cc(=O)c2c1 (single isomer, unassigned) [Example 38, 2-[1-[6-Methyl-2-(2-methylimidazo[1,2-a]pyridin-6-yl)-4-oxo-chromen-8-yl]ethylamino]benzoic acid]",1000 to 5000,< 500
"CC(Nc1cccnc1C(=O)O)c1cc(C(F)(F)F)cc2c(=O)cc(-c3cc4ccccc4[nH]3)oc12 (centres unmarked) [Example 185, 3-[1-[2-(1H-Indol-2-yl)-4-oxo-6-(trifluoromethyl)chromen-8-yl]ethylamino]pyridine-2-carboxylic acid]",> 10000,> 10000
"Cc1cc(C(C)Nc2ccccc2C(=O)O)c2oc(-c3ccc4c(c3)CN(C)C4=O)c(C)c(=O)c2c1 (single isomer, unassigned) [Example 137, 2-[1-[3,6-Dimethyl-2-(2-methyl-1-oxo-isoindolin-5-yl)-4-oxo-chromen-8-yl]ethylamino]benzoic acid]",1000 to 5000,< 500
"Cc1cc(C(C)Nc2ccccc2C(=O)O)c2oc(-c3cnn4cccnc34)cc(=O)c2c1 (centres unmarked) [Example 6, 2-[1-(6-Methyl-4-oxo-2-pyrazolo[1,5-a]pyrimidin-3-yl-chromen-8-yl)ethylamino]benzoic acid]",1000 to 5000,< 500
"Cc1cc(C(C)Nc2ccc(Cl)c(F)c2C(=O)O)c2oc(-c3ccc4nn(C)cc4c3)cc(=O)c2c1 (single isomer, unassigned) [Example 184, 3-Chloro-2-fluoro-6-[1-[6-methyl-2-(2-methylindazol-5-yl)-4-oxo-chromen-8-yl]ethylamino]benzoic acid]",500 to 1000,< 500
"Cc1cc(C(C)Nc2ccccc2C(=O)O)c2oc(-c3cnn4ccccc34)cc(=O)c2c1 (centres unmarked) [Example 10, 2-[1-(6-Methyl-4-oxo-2-pyrazolo[1,5-a]pyridin-3-yl-chromen-8-yl)ethylamino]benzoic acid]",1000 to 5000,< 500
"Cc1cc(C(C)Nc2ccccc2C(=O)O)c2oc(-c3nn(C)c4ccccc34)cc(=O)c2c1 (centres unmarked) [Example 12, 2-[1-[6-Methyl-2-(1-methylindazol-3-yl)-4-oxo-chromen-8-yl]ethylamino]benzoic acid]",5000 to 10000,< 500

# Now from value to molecule:
IC50 [1] [nM],IC50 [2] [nM],SMILES
< 500,< 500,"Cc1cc(C(C)Nc2ccc(Cl)nc2C(=O)O)c2oc(-c3ccc4nn(C)cc4c3)c(C)c(=O)c2c1 (single isomer, unassigned) [Example 181, 6-Chloro-3-[1-[3,6-dimethyl-2-(2-methylindazol-5-yl)-4-oxo-chromen-8-yl]ethylamino]pyridine-2-carboxylic acid]"
5000 to 10000,500 to 1000,"Cc1cc(C(C)Nc2ccccc2C(=O)O)c2oc(-c3cccn4ccnc34)cc(=O)c2c1 (single isomer, unassigned) [Example 127, 2-[1-(2-Imidazo[1,2-a]pyridin-8-yl-6-methyl-4-oxo-chromen-8-yl)ethylamino]benzoic acid]"
1000 to 5000,< 500,"Cc1cc(C(C)Nc2ccccc2C(=O)O)c2oc(-n3cc4ccccc4n3)cc(=O)c2c1 (single isomer, unassigned) [Example 50, 2-[1-(2-Indazol-2-yl-6-methyl-4-oxo-chromen-8-yl)ethylamino]benzoic acid]"
1000 to 5000,< 500,"Cc1cc(C(C)Nc2ccccc2C(=O)O)c2oc(-c3ccc4c(C#N)nn(C)c4c3)cc(=O)c2c1 (single isomer, unassigned) [Example 104, 2-[1-[2-(3-Cyano-1-methyl-indazol-6-yl)-6-methyl-4-oxo-chromen-8-yl]ethylamino]benzoic acid]"
< 500,< 500,"Cc1cc(C(C)Nc2ccccc2C(=O)O)c2oc(-c3cccn4nccc34)cc(=O)c2c1 (single isomer, unassigned) [Example 106, 2-[1-(6-Methyl-4-oxo-2-pyrazolo[1,5-a]pyridin-4-yl-chromen-8-yl)ethylamino]benzoic acid]"
5000 to 10000,1000 to 5000,"Cc1cc(C(C)Nc2ccccc2C(=O)O)c2oc(-c3cnc4nn(C)cc4c3)cc(=O)c2c1 (single isomer, unassigned) [Example 41, 2-[1-[6-Methyl-2-(2-methylpyrazolo[3,4-b]pyridin-5-yl)-4-oxo-chromen-8-yl]ethylamino]benzoic acid]"
1000 to 5000,< 500,"Cc1cc(C(C)Nc2ccccc2C(=O)O)c2oc(-c3ccc4nc(C)cn4c3)cc(=O)c2c1 (centres unmarked) [Example 16, 2-[1-[6-Methyl-2-(2-methylimidazo[1,2-a]pyridin-6-yl)-4-oxo-chromen-8-yl]ethylamino]benzoic acid]"
5000 to 10000,< 500,"Cc1cc(C(C)Nc2ccccc2C(=O)O)c2oc(-c3nccn4cccc34)cc(=O)c2c1 (single isomer, unassigned) [Example 105, 2-[1-(6-Methyl-4-oxo-2-pyrrolo[1,2-a]pyrazin-1-yl-chromen-8-yl)ethylamino]benzoic acid]"
